Laboratory results published in patent US20110059124A1, “THE QUALITY CONTROL METHOD AND APPLICATION OF A KIND OF GANODERMA LUCIDUM SPORE OIL FAT EMULSION” (Guangzhou Hanfang Natural Medicine Research & Development …, priority 2008, published 2011).
Marks after values point to notes of the source that are not given here. Ends that are not written are not given here.

What was measured:
Assay type in all cases: in vivo, ICR mice
H22 tumor bearing mice [1] = assay: Delayed hypersensitivity (DNFB) in H22 tumor bearing mice; settings: 0.42 mg/kg Sc once every other day
Description: Experiment Treatment Effect of Ganoderma lucidium Spore Oil Fat Emulsion i.v. Dosage Influencing the Immunity Function of Specific Cells in H22 Tumor Bearing Mice
Take 50 ICR mice, inoculate with H22 solid tumor pursuant to the research method of transplantable tumor (take the tumor mass under sterile operation, then weigh, grinding with Glass tissue homogenizer, after homogeneity, put into sterile containers, then dilute with normal saline into cell suspension of 1:3, for each mouse, inoculate intracutaneously under the right armpit for 0.2 ml). On the second day, they are randomized into 5 groups, with 10 mice in each group, with half being males and half females, which are divided into: Intravenous Control Group ([…], Blank Group), High, Medium, Low Doasge Groups injected with Ganoderma lucidium spore oil fat emulsion (1, 0.5, 0.25 g/kg) iv administered, Thymosin a1 injection group (0.42 mg/kg) Sc administered; apart from that Thymosin a1 is administered once every other day, other groups are administered once daily, with 7 administration. On day 1 after dosage, hair is removed from the abdomen of each mouse, with an area of 3×3 cm^2. On day 2 after dosage, smear 1% of DNFB evenly on the abdomen of mice (DNFB is a kind of haptene, which after combination with cutaneous proteins could form holoantigen, that stimulate the T Lymphocytes to multiply into sensitized lymphocytes).

H22 tumor bearing mice [2] = assay: Toxicity reduction for ^60Co radiation in H22 tumor bearing mice; settings: ^60Co 500 rad, 0.42 mg/kg Sc once every other day
Method: Toxicity Reducing Effect of Ganoderma lucidium Spore Oil Fat Emulsion i.v. Dosage for Chemotherapy with ^60Co in H22 Tumor Bearing Mice
(§1) Experiment Method: Take 60 ICR mice, innoculate with H22 solid tumor pursuant to the research method for transplantable tumors, 24 hours after innoculation, apart from the 10 animals in blank control, the other 50 mice receive ^60Co radiation, with a dosage of 500 rad; after radiation with ^60Co, randomize the animals into 5 groups pursuant to body weight, with 10 animals in each group, half of which are females and half of which are males. […] Apart from that Thymosin a1 are dosed once every other day, the other groups are administered once daily, with a total dose of 7 times, and the mice are sacrificed 24 hours after termination of dosage, weigh and collect blood from the orbit veins before sacrificing, microscopically examine the total number of peripheral blood leukocytes, at the same time remove spleen, thymus gland and one complete femur, then determine the number of nucleated cells in bone marrow, and weigh the thymus gland and spleen, and calculate the coefficients of thymus glands and spleen organs, and carry out statistical treatment (t Test).

normal mice [3] = assay: Toxicity reduction for chemotherapy (Cy) in normal mice; settings: 0.42 mg/kg Sc once every other day + Cy 100 mg/kg ip
Method: Toxicity reducing Effect of Ganoderma lucidium Spore Oil Fat Emulsion i.v. Dosage for Chemotherapy (Cy) in Normal Mice
Experiment Method: Take 60 ICR mice, and randomize into 6 groups pursuant to body weight, with 10 animals in each group, half of which are females and half of which are males. […] Apart from that Thymosin a1 is administered once every other day, other groups are administered once daily, with a total dosage of 7 times. On day 4 and day 5 of the administration, apart from blank control, the other groups begin to be treated with ip.Cy (100 mg/kg), for two successive days, and the mice are sacrificed 24 hours after termination of dosage, weigh and collect blood from the orbit veins before sacrificing, microscopically examine the total number of peripheral blood leukocytes, at the same time dissect one complete femur, then determine the number of nucleated cells in the bone marrow, and remove the thymus gland and spleen for weighing, and calculate the coefficients of thymus glands and spleen organs, and carry out statistical treatment (t Test).

H22 tumor bearing mice [4] = assay: Phagocytic activity of reticuloendothelial system (RES) in H22 tumor bearing mice; settings: 0.42 mg/kg Sc once every other day
Method: Experiment Treatment Effect of Ganoderma lucidium Spore Oil Fat Emulsion i.v. Dosage Influencing the Phagocytic Activity of Reticuloendothelial System (RES) in H22 Tumor Bearing Mice.
Experiment Method: Take 50 ICR mice, inoculate with H22 solid tumor, randomize into 5 groups pursuant to body weight, with 10 animals in each group, half of which are females and half of which are males. […] Apart from that Thymosin a1 is administered once every other day, other groups are administered once daily, with a total dosage of 11 times. […] All the data obtained are statistically treated (t Test).

normal mice [5] = assay: Toxicity reduction for ^60Co radiation in normal mice; settings: ^60Co 500 rad, 0.42 mg/kg Sc once every other day
Method: Toxicity Reducing Effect of Ganoderma lucidium Spore Oil Fat Emulsion i.v . Dosage for Chemotherapy ^60Co in Normal Mice
as §1, with “mice,” for “mice, innoculate with H22 solid tumor pursuant to the research method for transplantable tumors, 24 hours after innoculation,”, “are radiated with ^60Co,” for “receive ^60Co radiation,”, “All groups of animals are dosed 24 hours after innoculation, apart” for “Apart”, “leukocytes;” for “leukocytes,”

H22 tumor bearing mice [6] = assay: Toxicity reduction for chemotherapy with cyclophosphamide (Cy) in H22 tumor bearing mice; settings: 0.42 mg/kg Sc once every other day + Cy 100 mg/kg ip
Method: Toxicity Reduction Effect of Ganoderma lucidium Spore Oil Fat Emulsion i.v. Dosage for Chemotherapy with Cyclophosphamide (Cy) in H22 Tumor Bearing Mice
Experiment Method: Take 60 ICR mice, inoculate with H22 solid tumor, weigh 24 hours after inoculation, then randomize into 6 groups, with 10 animals in each group, half of which are females and half of which are males. […] Apart from that Thymosin a1 are dosed once every other day, the other groups are administered once daily, with a total dose of 7 times, on day 4 and day 5 of administration, apart from blank control, the other groups begin to be treated with ip.Cy (100 mg/kg), for two successive day, and the mice are sacrificed 24 hours after termination of dosage, weigh and collect blood from the orbit veins before sacrificing, microscopic examine the total number of peripheral blood leukocytes, at the same time dissect one complete femur, then determine the number of nucleated cells in the bone marrow, and remove the thymus gland and spleen for weighing, and calculate the coefficients of thymus glands and spleen organs, and carry out statistical treatment (t Test).

## Thymosin a1: Positive control drug Thymosin a1 injection, 0.42 mg/kg Sc (SDAAVDTSSEITTKDLKEKKEVVEEAEN; ends and bridges not checked; UniProt P06454 2-29, looked up)
H22 tumor bearing mice [1]; 24 hours after DNFB attack
  Swelling Degree: 13.50 ± 3.44 mg
  Swelling Rate: 89.12 ± 19.76 %
H22 tumor bearing mice [1]; in g
  Body Weight After Dosage: 25.10 ± 2.18
  Body Weight Before Dosage: 19.30 ± 1.34
H22 tumor bearing mice [2]
  Body Weight After Dosage: 24.20 ± 2.25 g
  Body Weight Before Dosage: 19.60 ± 1.51 g
  Spleen Coefficient: 0.33 ± 0.04 g/100 g
  The number of nucleated cells in bone marrow: 82.71 ± 13.58* 10^5/piece
  Thymus Gland Coefficient: 0.17 ± 0.07 g/100 g
  WBC: 1.98 ± 0.31* 10^9/L
Normal mice [3]
  Body Weight After Dosage: 22.90 ± 2.18 g
  Body Weight Before Dosage: 19.60 ± 1.26 g
  Spleen Coefficient: 0.36 ± 0.10 g/100 g
  The number of nucleated cells in bone marrow: 75.43 ± 13.32* 10^5/piece
  Thymus Gland Coefficient: 0.18 ± 0.03 g/100 g
  WBC: 2.04 ± 0.41* 10^9/L
H22 tumor bearing mice [4]
  Clearance Index K: 0.09 ± 0.02
  Liver Coefficient: 6.91 ± 1.08 g/100 g
  Phagocytic Coefficient α: 5.71 ± 0.76
  Spleen Coefficient: 1.16 ± 0.44 g/100 g
  Thymus Gland Coefficient: 0.33 ± 0.11 g/100 g
Normal mice [5]
  Body Weight After Dosage: 23.30 ± 2.11 g
  Body Weight Before Dosage: 19.90 ± 1.66 g
  Spleen Coefficient: 0.31 ± 0.14 g/100 g
  The number of nucleated cells in bone marrow: 67.83 ± 13.09* 10^5/piece
  Thymus Gland Coefficient: 0.14 ± 0.05 g/100 g
  WBC: 1.21 ± 0.38* 10^9/L
H22 tumor bearing mice [6]
  Body Weight After Dosage: 23.60 ± 2.27 g
  Body Weight Before Dosage: 19.70 ± 1.57 g
  Spleen Coefficient: 0.64 ± 0.21 g/100 g
  The number of nucleated cells in bone marrow: 73.31 ± 15.99* 10^5/piece
  Thymus Gland Coefficient: 0.12 ± 0.04 g/100 g
  WBC: 2.03 ± 0.44* 10^9/L
